In ChEMBL document CHEMBL1201862, “PubChem BioAssay data set” (2004):
Calls of active or inactive are those of the source.

What was measured:
[1] = non-specific 3'UTR reporter inhibition in Clone20-Shn3RL – cell-based, Renilla luciferase, cherry-picked, counter-screen for Shn3 inhibitor project, dose response (AID 624133); format: functional
[2] = reduction of Shn3 3'UTR-driven luciferase in osteoblasts – cell-based, Clone20 osteoblasts, firefly luciferase, cherry-picked, dose response (AID 624132); format: functional;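 note: firefly luciferase luminescence from reporter carrying the Shn3 3'UTR in osteoblasts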
[3] = loss of viability in HepG2 cells – cell-based, CellTiter-Glo, cherry-picked, cytotoxicity control for Shn3 inhibitor project, dose response (AID 624134); format: functional
[4] = molecular target: T1, Protein skinhead-1 (Caenorhabditis elegans, UniProt P34707); format: functional
T1 sequence (P34707 whole entry): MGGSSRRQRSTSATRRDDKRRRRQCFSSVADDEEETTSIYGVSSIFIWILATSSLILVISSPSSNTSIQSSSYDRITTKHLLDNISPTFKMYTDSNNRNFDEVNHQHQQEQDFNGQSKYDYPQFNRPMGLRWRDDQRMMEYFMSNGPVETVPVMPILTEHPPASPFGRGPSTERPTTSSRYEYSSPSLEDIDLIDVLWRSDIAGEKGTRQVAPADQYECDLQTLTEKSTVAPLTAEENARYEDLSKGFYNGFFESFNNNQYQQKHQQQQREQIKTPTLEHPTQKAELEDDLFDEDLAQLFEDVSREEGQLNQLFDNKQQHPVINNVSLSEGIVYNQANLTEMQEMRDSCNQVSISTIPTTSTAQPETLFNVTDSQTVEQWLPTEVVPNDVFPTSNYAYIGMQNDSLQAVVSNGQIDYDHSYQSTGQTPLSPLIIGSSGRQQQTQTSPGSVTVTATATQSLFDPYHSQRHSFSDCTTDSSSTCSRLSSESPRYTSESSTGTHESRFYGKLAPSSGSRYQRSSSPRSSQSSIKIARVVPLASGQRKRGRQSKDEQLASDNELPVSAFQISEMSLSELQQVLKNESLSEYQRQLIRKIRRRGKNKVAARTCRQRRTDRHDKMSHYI

[5] = molecular target: T2, High affinity choline transporter 1 (Homo sapiens, UniProt Q9GZV3); test: human choline transporter blockers, potency – cell-based, 5-point CRC, membrane potential dye, dose response (AID 504840); format: functional
T2 sequence (Q9GZV3 whole entry): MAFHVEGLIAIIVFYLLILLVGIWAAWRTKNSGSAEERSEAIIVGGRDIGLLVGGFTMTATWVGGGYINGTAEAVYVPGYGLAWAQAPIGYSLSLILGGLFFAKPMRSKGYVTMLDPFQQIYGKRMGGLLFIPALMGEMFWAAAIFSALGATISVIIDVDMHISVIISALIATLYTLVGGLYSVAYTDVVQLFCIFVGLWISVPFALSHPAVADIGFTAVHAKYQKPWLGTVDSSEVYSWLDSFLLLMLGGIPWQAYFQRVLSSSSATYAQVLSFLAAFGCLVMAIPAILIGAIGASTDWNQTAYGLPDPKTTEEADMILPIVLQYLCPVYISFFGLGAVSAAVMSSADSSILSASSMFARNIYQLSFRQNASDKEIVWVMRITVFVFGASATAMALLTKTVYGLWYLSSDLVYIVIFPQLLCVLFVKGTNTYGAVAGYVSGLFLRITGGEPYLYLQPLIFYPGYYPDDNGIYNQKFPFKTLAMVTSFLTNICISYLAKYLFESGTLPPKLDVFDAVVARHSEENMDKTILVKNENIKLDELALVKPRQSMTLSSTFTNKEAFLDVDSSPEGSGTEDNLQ

[6] = cells; format: functional, cell-based
[7] = cells; format: functional, cell-based; remark: listed apart in the source
[8] = viability of uninfected HEp-2 cells – cell-based, HTS, cytotoxicity control for RSV inhibitor project, dose response (AID 2410); format: functional; settings: human respiratory syncytial virus
[9] = Trypanosoma cruzi growth suppression in host cells – NIH3T3 host cells, beta-gal luminescence, confirmation (AID 2044); format: functional, cell-based;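 note: intracellular parasites grown in NIH/3T3 mouse fibroblasts as host cells; luminescent beta-galactosidase reporter signal from transgenic T. cruzi replicating inside host cells; inhibitors lower the luminescence signal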
[10] = molecular target: Fatty acid synthase (Homo sapiens, UniProt P49327); test: inhibition of human FAS-TE enzyme activity – biochemical, kinetic fluorescence intensity, dose response (AID 624326); format: functional;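 note: rate of fluorescence rise from hydrolysis of a fluorogenic O-methyl fluorescein ester substrate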
Fatty acid synthase, sequence (P49327 whole entry): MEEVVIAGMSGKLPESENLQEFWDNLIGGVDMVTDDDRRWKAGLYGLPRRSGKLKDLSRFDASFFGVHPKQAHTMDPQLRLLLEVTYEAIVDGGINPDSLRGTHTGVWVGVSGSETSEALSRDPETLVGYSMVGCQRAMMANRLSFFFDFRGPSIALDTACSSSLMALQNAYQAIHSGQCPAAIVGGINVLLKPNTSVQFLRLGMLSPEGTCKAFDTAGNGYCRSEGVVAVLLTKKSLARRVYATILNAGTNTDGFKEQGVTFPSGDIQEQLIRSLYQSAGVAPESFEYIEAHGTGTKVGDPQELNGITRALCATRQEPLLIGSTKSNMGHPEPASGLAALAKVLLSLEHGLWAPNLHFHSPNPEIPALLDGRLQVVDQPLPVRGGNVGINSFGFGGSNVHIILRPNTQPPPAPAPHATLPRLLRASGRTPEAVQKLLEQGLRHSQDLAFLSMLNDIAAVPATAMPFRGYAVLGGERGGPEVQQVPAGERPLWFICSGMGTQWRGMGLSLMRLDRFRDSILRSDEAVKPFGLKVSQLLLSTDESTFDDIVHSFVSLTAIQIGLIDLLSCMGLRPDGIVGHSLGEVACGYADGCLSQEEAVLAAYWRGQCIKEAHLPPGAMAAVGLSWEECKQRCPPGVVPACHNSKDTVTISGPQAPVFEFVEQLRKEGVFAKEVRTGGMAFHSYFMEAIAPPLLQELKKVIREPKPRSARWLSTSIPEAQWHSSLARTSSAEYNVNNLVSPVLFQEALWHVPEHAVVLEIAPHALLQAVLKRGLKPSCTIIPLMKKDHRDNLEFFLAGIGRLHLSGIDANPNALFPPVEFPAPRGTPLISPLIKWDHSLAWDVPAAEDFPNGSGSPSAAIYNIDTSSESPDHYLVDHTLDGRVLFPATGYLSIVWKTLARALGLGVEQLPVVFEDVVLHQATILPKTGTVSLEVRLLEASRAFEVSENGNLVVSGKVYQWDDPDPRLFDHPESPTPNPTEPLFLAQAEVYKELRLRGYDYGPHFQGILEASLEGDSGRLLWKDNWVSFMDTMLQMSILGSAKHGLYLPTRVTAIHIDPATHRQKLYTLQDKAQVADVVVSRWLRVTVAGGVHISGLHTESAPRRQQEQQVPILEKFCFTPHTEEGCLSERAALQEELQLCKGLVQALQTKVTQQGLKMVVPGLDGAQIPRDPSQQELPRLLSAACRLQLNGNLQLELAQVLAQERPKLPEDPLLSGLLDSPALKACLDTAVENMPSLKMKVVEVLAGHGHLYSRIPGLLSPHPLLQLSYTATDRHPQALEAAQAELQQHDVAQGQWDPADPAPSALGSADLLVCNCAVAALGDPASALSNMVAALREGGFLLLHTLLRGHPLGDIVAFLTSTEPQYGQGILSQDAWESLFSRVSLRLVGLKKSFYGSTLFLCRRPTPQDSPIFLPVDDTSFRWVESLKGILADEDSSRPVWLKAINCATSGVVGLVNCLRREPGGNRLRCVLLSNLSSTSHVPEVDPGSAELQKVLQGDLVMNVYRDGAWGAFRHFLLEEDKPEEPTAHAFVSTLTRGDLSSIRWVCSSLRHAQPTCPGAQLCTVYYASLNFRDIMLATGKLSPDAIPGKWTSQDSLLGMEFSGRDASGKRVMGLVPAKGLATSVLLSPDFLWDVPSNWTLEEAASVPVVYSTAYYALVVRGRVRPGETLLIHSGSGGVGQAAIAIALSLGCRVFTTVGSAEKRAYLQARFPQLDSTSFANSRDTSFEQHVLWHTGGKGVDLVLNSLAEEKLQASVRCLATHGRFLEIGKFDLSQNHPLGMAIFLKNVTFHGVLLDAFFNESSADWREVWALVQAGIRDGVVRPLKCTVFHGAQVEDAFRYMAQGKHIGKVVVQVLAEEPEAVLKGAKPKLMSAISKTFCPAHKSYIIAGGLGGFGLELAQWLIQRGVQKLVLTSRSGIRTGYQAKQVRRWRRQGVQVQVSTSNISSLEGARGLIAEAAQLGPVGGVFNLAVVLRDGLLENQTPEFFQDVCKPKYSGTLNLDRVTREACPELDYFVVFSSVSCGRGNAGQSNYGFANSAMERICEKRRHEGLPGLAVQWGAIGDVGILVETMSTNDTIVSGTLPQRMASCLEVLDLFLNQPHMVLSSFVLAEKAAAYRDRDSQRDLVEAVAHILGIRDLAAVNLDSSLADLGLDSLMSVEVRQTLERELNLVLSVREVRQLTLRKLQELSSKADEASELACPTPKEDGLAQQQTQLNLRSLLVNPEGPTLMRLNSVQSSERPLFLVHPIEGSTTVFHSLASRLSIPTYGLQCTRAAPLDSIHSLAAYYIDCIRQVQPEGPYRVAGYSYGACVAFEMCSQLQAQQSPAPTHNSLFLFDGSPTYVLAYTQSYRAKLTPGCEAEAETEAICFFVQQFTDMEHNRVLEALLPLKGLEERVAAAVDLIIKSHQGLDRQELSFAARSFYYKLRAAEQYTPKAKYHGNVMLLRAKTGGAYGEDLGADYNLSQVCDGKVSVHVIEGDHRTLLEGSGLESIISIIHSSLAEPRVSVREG

[11] = NIH3T3 cell viability loss – ATP luminescence, mouse fibroblasts, counter-screen, dose response (AID 2010); format: functional, cell-based;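 note: cells exposed to compound for about 90 hours before reading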
[12] = molecular target: Heat shock protein HSP 90-alpha (Homo sapiens, UniProt P07900); format: functional, organism-based
[13] = molecular target: T3, Ubiquitin-conjugating enzyme E2 N (Homo sapiens, UniProt P61088); format: functional;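 note: Dose-response confirmation in a TR-FRET assay detecting UBC13-driven polyubiquitin chain formation, inhibition measured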
T3 sequence (P61088 whole entry): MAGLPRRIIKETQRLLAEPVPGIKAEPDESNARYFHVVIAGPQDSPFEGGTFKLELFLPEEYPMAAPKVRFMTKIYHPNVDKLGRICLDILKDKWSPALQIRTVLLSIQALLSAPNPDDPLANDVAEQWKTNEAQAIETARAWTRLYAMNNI

[14] = molecular target: T4, Microphthalmia-associated transcription factor (Homo sapiens, UniProt O75030); test: reducers of TRPM1 reporter luminescence, concentration series – cell-based, SK-MEL-5, cherry-picked, set 3, MITF inhibitor project, dose response (AID 493073); format: functional;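 note: SK-MEL-5 melanoma cells with luciferase driven by the MITF target TRPM1 promoter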
T4 sequence (O75030 whole entry): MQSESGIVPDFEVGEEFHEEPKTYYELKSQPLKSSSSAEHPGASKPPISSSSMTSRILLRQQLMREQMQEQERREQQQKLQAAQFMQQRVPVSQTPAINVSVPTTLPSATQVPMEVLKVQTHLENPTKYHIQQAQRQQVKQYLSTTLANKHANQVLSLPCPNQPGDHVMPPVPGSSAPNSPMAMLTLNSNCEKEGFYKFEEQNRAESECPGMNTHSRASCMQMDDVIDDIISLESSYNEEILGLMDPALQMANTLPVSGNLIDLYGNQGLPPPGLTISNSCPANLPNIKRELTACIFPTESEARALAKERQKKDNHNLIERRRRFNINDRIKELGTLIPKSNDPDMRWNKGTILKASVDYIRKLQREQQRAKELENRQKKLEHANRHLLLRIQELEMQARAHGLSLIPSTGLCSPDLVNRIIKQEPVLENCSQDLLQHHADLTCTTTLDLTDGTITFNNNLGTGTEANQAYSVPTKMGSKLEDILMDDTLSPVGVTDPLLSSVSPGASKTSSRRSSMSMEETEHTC

[15] = microbe, parasite or virus in culture; format: functional; settings: Mycobacterium tuberculosis
[16] = molecular target: T5, Streptokinase A (Streptococcus pyogenes serotype M1, UniProt P10520); test: viability-normalized secreted streptokinase activity reduction – plasminogen activation absorbance, OD405, dose response (AID 1914); format: functional, Streptococcus pyogenes M1 GAS;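 note: secreted streptokinase activity via plasminogen activation per viability signal from cell pellet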
T5 sequence (P10520 whole entry): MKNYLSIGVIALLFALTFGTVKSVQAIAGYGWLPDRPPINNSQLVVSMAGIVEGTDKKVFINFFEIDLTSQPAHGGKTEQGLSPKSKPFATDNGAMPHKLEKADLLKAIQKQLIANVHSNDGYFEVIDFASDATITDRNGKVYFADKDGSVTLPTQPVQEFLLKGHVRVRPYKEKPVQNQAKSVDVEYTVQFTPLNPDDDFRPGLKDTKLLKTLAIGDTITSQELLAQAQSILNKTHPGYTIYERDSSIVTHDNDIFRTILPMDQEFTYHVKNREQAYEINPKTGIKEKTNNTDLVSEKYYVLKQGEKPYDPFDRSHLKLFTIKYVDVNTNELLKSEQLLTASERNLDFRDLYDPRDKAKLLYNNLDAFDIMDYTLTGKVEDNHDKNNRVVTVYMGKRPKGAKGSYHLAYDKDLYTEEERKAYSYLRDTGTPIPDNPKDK

[17] = system: Streptococcus sp. 'group A'; test: Streptococcus pyogenes SK(-)GAS viability under kanamycin – luminescence, BacTiterGlo, confirmation, counter-screen for streptokinase expression inhibitor project, dose response (AID 1900); format: functional, organism-based
[18] = molecular target: T6, Replicative DNA helicase DnaB (Mycobacterium tuberculosis, UniProt P9WMR3); test: DnaB intein splicing inhibitors, dose response, biochemical, cell-free fluorescence (AID 449749); format: functional
T6 sequence (P9WMR3 whole entry): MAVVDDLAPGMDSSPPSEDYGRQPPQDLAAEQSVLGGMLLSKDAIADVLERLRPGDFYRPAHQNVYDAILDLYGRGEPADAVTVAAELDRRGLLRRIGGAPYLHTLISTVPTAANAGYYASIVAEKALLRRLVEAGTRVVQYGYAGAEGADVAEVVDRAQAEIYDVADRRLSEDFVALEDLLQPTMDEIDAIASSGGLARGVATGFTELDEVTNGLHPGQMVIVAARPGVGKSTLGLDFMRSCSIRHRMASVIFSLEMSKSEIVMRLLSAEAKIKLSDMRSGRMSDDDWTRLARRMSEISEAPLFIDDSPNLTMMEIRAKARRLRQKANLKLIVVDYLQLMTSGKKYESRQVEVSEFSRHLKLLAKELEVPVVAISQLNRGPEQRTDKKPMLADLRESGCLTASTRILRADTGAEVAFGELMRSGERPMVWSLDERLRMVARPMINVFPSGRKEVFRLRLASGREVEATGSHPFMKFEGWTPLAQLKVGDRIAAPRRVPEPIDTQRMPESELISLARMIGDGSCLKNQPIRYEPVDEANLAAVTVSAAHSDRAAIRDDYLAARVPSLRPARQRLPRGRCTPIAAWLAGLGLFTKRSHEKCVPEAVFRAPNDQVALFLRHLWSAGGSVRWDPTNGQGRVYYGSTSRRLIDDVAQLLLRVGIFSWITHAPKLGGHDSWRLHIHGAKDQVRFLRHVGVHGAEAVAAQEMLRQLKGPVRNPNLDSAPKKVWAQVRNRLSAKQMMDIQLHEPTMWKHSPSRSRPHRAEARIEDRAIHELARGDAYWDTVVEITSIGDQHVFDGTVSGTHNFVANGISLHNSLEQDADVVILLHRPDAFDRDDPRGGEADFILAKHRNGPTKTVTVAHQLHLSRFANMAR

[19] = system: Streptococcus; test: GAS UMAA2166 growth inhibition – luminescence, BacTiterGlo, counter-screen for streptokinase expression inhibitor project, dose response (AID 1915); format: functional, organism-based;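 note: potency for reduction of bacterial viability or growth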
[20] = toxicity toward HepG2 liver cells – cell-based, plate reader, cherry-pick, antagonist series, cytotoxicity control, dose response (AID 743416); format: functional

Cc1cc2c(cc(C(=O)N3CCC(C(=O)NC4CCCC4)CC3)n2Cc2c(F)cccc2Cl)o1
AC50 [1]: 10 µM (active) | AC50 [2]: 4.81 µM (active) | AC50 [3]: 49.4 µM (active)

Clc1ccccc1-c1ccc(CN2CCN(c3ccccc3)CC2)o1
IC50 [4]: > 100 µM (inactive)

O=C(Nc1ccc(S(=O)(=O)NC2=NCCCCC2)cc1)c1ccc(C(F)(F)F)cc1
IC50 [5]: 11.8 µM (active)

Cn1c(CC(=O)Nc2ccccc2)cc2ccccc21
EC50 [6]: > 350 µM (not active) | EC50 [7]: > 350 µM (not active)

O=C(C1=C[C@@H](C2CC2)C[C@@H](OCCCCO)O1)N1CCN(Cc2ccc3c(c2)OCO3)CC1
EC50 [6]: > 350 µM (not active) | EC50 [7]: > 350 µM (not active)

CCc1ccc(-c2nn(-c3cc(Cl)ccc3[N+](=O)[O-])c(=O)c3ccccc23)cc1
IC50 [4]: > 100 µM (inactive)

CC(C)C(OC(=O)C1=Cc2ccccc2OC1)C(=O)NC1CCCC1 (stereo not given)
IC50 [4]: > 100 µM (inactive)

CC/C(NN1CCCCCC1)=C1/C(=O)NC(=O)N(c2ccc(C)cc2)C1=O
EC50 [6]: > 350 µM (not active) | EC50 [7]: > 350 µM (not active)

CCOc1ccc(-c2nnc(-c3cccs3)o2)cc1
IC50 [4]: > 100 µM (inactive)

O=C(Nc1cccc(C(=O)N2CCCCC2)c1)c1ccccc1Br
IC50 [5]: 16.8 µM (active)

O=S(=O)(c1ccc(-c2csc(-c3cccnc3)n2)cc1)N1CCCCC1
CC50 [8]: 40.1 µM (active) | EC50 [9]: 1.89 µM (active) | IC50 [10]: 3.65 µM (active) | EC50 [11]: > 30 µM (not active)

CC(CCc1ccccc1)NC(=O)c1ccc(Br)cc1 (stereo not given)
AC50 [12]: 2.6 µM (active)

Cc1cc(-c2ccccc2)n(-c2ccc(C(=O)N3CCN(c4ncccn4)CC3)cc2)n1
IC50 [5]: 8.32 µM (active)

CCC(NCCc1ccccc1)=C1C(=O)N(C)C(=O)N(C)C1=O
IC50 [5]: 13.8 µM (active)

Cc1ccc(C(C(=O)NC(C)(C)C)N(Cc2ccccc2)C(=O)c2snc(C(N)=O)c2N)o1 (stereo not given)
IC50 [13]: > 20 µM (inactive)

COc1ccc(C(=O)C2CCCN(C(=O)C3CCOCC3)C2)cc1OC (stereo not given)
EC50 [6]: > 350 µM (not active) | EC50 [7]: > 350 µM (not active)

O=C(c1ccc([N+](=O)[O-])s1)N1CCN(c2ccccn2)CC1
AC50 [14]: 12.2 µM (active)

CC1CCN(Cc2nnnn2CCCC(=O)NCCc2cnn(C)c2)CC1
EC50 [6]: > 350 µM (not active) | EC50 [7]: > 350 µM (not active)

O=C(NCCCN1CCOCC1)c1cc2c3ccccc3nc-2c(-c2cccc(Br)c2)[nH]1
CC50 [15]: 19.4 µM (active) | IC50 [13]: > 20 µM (inactive)

COCCn1cc(C(=O)NCc2cccs2)c2c3ccccc3n(C)c2c1=O
IC50 [4]: > 100 µM (inactive)

CC(C)OC(=O)c1cccc(-c2ccc(C=O)o2)c1
IC50 [5]: 14.5 µM (active)

COc1ccc(Cl)cc1N=C(N)Nc1nc(O)cc(CSc2ccc(C)cc2)n1
AC50 [1]: 21.5 µM (active) | AC50 [2]: 1.82 µM (active) | AC50 [3]: > 70 µM (inactive)

OCCN(CCO)c1ccc(C(c2ccccc2Cl)c2ccc(N(CCO)CCO)cc2Cl)c(Cl)c1
EC50 [16]: 4.84 µM (active) | EC50 [17]: 4.01 µM (active) | AC50 [18]: 1.91 µM (active) | EC50 [19]: 8.65 µM (active) | IC50 [4]: > 100 µM (inactive)

O=C(C=Cc1cccc(O)c1)c1ccccc1O
AC50 [12]: 2.81 µM (active)

CC(C)=CCc1c(O)cc(O)c2c(=O)c(O[C@@H]3O[C@@H](C)[C@H](O)[C@@H](O)[C@H]3O)c(-c3ccc(O)cc3)oc12
IC50 [13]: > 20 µM (inactive)

CCN(Cc1ccncc1)C(=O)c1cc(COc2ccc(F)cc2Cl)on1
IC50 [5]: 13.2 µM (active)

CNS(=O)(=O)c1ccc2c(c1)nc(S)n2C
IC50 [4]: > 100 µM (inactive)

Cc1ccc(S(=O)(=O)N2CCCc3nc(-c4ccc(F)cc4)ccc32)cc1
AC50 [20]: > 52 µM (inactive)
